Experimental findings from patent US5631222A, “Endothelin-antagonizing peptide” (Kyowa Hakko Kogyo Co., Ltd., priority 1993, dated 1997) are described below.

Positions of bridges follow the written chain, without caps; N, C: chain ends. Non-standard residues stand in square brackets, D forms with d. Residues, ends and D or L forms follow the SMILES beside them. 2Thi = N[C@@H](Cc1cccs1)C(=O)O; Cha = N[C@@H](CC1CCCCC1)C(=O)O Where only a bound is given, the exact number is not on record here.

The first assay deals with T1, endothelin receptor (Bos taurus, UniProt P28088).
T1 construct: the suspension was used as a membrane fraction liquid; from tissue; host or cells: bovine cerebellum membrane fraction
T1 sequence (P28088 27-441): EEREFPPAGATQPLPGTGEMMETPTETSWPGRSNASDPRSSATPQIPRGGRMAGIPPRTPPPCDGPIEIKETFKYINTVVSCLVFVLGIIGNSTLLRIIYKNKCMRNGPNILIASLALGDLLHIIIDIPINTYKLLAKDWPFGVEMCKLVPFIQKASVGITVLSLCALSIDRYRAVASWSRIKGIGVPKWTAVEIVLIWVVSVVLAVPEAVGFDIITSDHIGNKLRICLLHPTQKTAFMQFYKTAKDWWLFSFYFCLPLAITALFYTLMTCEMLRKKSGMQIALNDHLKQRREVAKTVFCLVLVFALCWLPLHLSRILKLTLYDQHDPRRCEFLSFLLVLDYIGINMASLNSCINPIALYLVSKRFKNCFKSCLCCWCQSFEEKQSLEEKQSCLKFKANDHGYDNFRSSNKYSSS
The experiment in a line: Endothelin receptor-antagonizing activity: inhibition of 125I-endothelin-1 binding to bovine cerebellum membrane fraction. The settings on record: 125I-Endothelin-1, bovine cerebellum membrane fraction, 25° C. for 2 hours; read-out: IC50: Concentration causing 50% inhibition of endothelin1 binding. On the procedure:
Bovine cerebellum tissue was homogenized at 4° C. by using POLYTRON (type PT10/35, manufactured by Kinematic Gmbh Co.) in a buffer solution A (1 mM NaHCO3, 5 mM ethylenediaminetetraacetic acid, 5 μg/ml leupeptin, 5 μg/ml pepstatin A, 40 μM phenylmethylsulfonyl fluoride, pH 8.3).
The obtained suspension was centrifuged for 10 minutes at 8,000 G and 4° C., and the resulting supernatant was centrifuged for 60 minutes at 40,000 G and 4° C. to obtain pellets. The obtained pellets were suspended in a buffer solution A and again centrifuged for 60 minutes at 40,000 G and 4° C. The resulting solid substance was prepared as a suspension containing 2 mg/ml of protein, and the suspension was used as a membrane fraction liquid. […] These mixtures were incubated at 25° C. for 2 hours, and then filtered with a GF/B glass filter (produced by Whatman Co.). […] The inhibition ratio against endothelin receptor binding activity was calculated according to the following equation:
Inhibition ratio (%)=(C-A/C-B)×100
B: Radioactivity in the presence of unlabelled endothelin-1
C: Radioactivity in the absence of both of the compound shown in Table 2 and unlabelled endothelin-1
Turning to `CC[C@H](C)[C@H](NC(=O)[C@H](CC1CCCCC1)NC(=O)[C@@H](NC(=O)[C@H](CC(C)C)NC(=O)[C@H](Cc1c[nH]cn1)NC(=O)[C@H](C)NC(=O)[C@H](Cc1ccccc1)NC(=O)[C@H](Cc1ccc(O)cc1)NC(=O)[C@@H](NC(=O)[C@H](Cc1c[nH]c2ccccc12)NC(=O)[C@H](CC(=O)O)NC(=O)[C@@H]1CCCN1C(=O)[C@H](C)NC(=O)[C@@H](NC(=O)CNC(=O)[C@H](Cc1c[nH]cn1)NC(=O)[C@H](Cc1c[nH]c2ccccc12)NC(=O)[C@H](CC(N)=O)NC(=O)CN)[C@@H](C)O)C(C)C)[C@@H](C)O)C(=O)N[C@@H](Cc1c[nH]c2ccccc12)C(=O)O` [Compound 14, HGlyAsnTrpHisGlyThrAlaProAspTrpValTyrPheAlaHisLeuThrChaIleTrpOH] (H-GNWHGTAPDWVYFAHLT[Cha]IW-OH), the IC50 stood at 12 nM. As to `CC[C@H](C)[C@H](NC(=O)[C@H](Cc1cccs1)NC(=O)[C@@H](NC(=O)[C@H](CC(C)C)NC(=O)[C@H](Cc1c[nH]cn1)NC(=O)[C@H](C)NC(=O)[C@H](Cc1ccccc1)NC(=O)[C@H](Cc1ccc(O)cc1)NC(=O)[C@@H](NC(=O)[C@H](Cc1c[nH]c2ccccc12)NC(=O)[C@H](CC(=O)O)NC(=O)[C@@H]1CCCN1C(=O)[C@H](C)NC(=O)[C@@H](NC(=O)CNC(=O)[C@H](Cc1c[nH]cn1)NC(=O)[C@H](Cc1c[nH]c2ccccc12)NC(=O)[C@H](CC(N)=O)NC(=O)CN)[C@@H](C)O)C(C)C)[C@@H](C)O)C(=O)N[C@@H](Cc1c[nH]c2ccccc12)C(=O)O` [Compound 17, HGlyAsnTrpHisGlyThrAlaProAspTrpValTyrPheAlaHisLeuThrThiIleTrpOH] (H-GNWHGTAPDWVYFAHLT[2Thi]IW-OH), the IC50 came out at 0.12 nM. In the case of `CC[C@H](C)[C@H](NC(=O)[C@H](CC(=O)O)NC(=O)[C@H](CC(C)C)NC(=O)[C@H](Cc1c[nH]cn1)NC(=O)[C@H](C)NC(=O)[C@H](Cc1ccccc1)NC(=O)[C@H](Cc1ccc(O)cc1)NC(=O)[C@@H](NC(=O)[C@H](Cc1c[nH]c2ccccc12)NC(=O)[C@@H]1CC(=O)NCC(=O)N[C@@H](Cc2ccc(O)cc2)C(=O)N2CCC[C@H]2C(=O)N[C@@H](Cc2c[nH]c3ccccc23)C(=O)N[C@@H](Cc2c[nH]c3ccccc23)C(=O)N[C@@H](CC(N)=O)C(=O)N[C@@H](Cc2ccc(O)cc2)C(=O)N[C@@H](CCCNC(=N)N)C(=O)N1)C(C)C)C(=O)N[C@H](C(=O)N[C@@H](Cc1c[nH]c2ccccc12)C(=O)O)[C@@H](C)CC` [Compound 52] (GYPWWNYRDWVYFAHLDIIW-OH; lactam N-9), the IC50 came out at 19 nM.

In the case of `CC[C@H](C)[C@H](NC(=O)[C@H](CC(=O)O)NC(=O)[C@H](CC(C)C)NC(=O)[C@H](Cc1c[nH]cn1)NC(=O)[C@H](C)NC(=O)[C@H](Cc1ccccc1)NC(=O)[C@H](Cc1ccc(O)cc1)NC(=O)[C@@H](NC(=O)[C@H](Cc1c[nH]c2ccccc12)NC(=O)[C@@H]1CC(=O)NCC(=O)N[C@@H](CO)C(=O)N[C@@H](C)C(=O)N[C@@H](C)C(=O)N[C@@H](C(C)C)C(=O)N[C@@H](Cc2ccc(O)cc2)C(=O)N[C@@H](Cc2ccccc2)C(=O)N1)C(C)C)C(=O)N[C@H](C(=O)N[C@@H](Cc1c[nH]c2ccccc12)C(=O)O)[C@@H](C)CC` [Compound 53] (GSAAVYFDWVYFAHLDIIW-OH; lactam N-8), the IC50 turned out to be 2.4 nM. In the case of “H-GDWKGTSPDWVYFAHLDIIW-OH [Compound 6, HGlyAspTrpLysGlyThrSerProAspTrpValTyrPheAlaHisLeuAsplleIleTrpOH]”, the IC50 stood at 0.11 nM. On to H-GNWHGGAPDWVYFAHLDIIW-OH [Compound 3], for which the IC50 came out at 0.064 nM. For the molecule H-GNWHGTAADWVYFAHLSMIW-OH [Compound 46], the IC50 stood at 0.8 nM. On the same count and under the same terms, with “H-GNWHGTAPDAVYFAHLDIIW-OH [Compound 4, HGlyAsnTrPHisGlyThrAlaProAspAlaValTyrPheAlaHisLeuAspIleIleTrpOH]” the figure was 0.22 nM; with “H-GNWHGTAPDWFAHLDIIW-OH [Compound 11, HGlyAsnTrpHisGlyThrAlaProAspTrpPheAlaHisLeuAspIleIleTrpOH]”, 6.1 nM; with H-GNWHGTAPDWPYFAHLDIIW-OH [Compound 47], 4.2 nM.

As to H-GNWHGTAPDWVYFAHLDIIF-OH [Compound 5], the IC50 worked out at 11 nM. Take H-GNWHGTAPDWVYFAHLDLIW-OH [Compound 16]: the IC50 is 5.4 nM. For the molecule H-GNWHGTAPDWVYFAHLEIIW-OH [Compound 43], the IC50 worked out at 17 nM. H-GNWHGTAPDWVYFAHLNYIW-OH [Compound 20]: the IC50 worked out at 12 nM. In the case of H-GNWHGTAPDWVYFAHLSMIW-OH [Compound 21], the IC50 was 0.96 nM.

H-GNWHGTAPDWVYFAHLTLIW-OH [Compound 13]: the IC50 is 2.9 nM.

Consider H-GNWHGTAPDWVYFAHLTMIW-OH [Compound 18], for which the IC50 came to 1.7 nM. As for H-GNWHGTAPDWVYFAHLTYIW-OH [Compound 19], the IC50 was found to be 1.2 nM.

On to “H-GNWHGTAPDWYFAHLDIIW-OH [Compound 10, HGlyAsnTrpHisGlyThrAlaProAspTrpTyrPheAlaHisLeuAspIleIleTrpOH]”, for which the IC50 amounted to 0.57 nM.

As for “H-GNWHTTAPDWVYFAHLDIIW-OH [Compound 2, HGlyAsnTrpHisThrThrAlaProAspTrpValTyrPheAlaHisLeuAspIleleTrpOH]”, the IC50 stood at 0.061 nM. For “H-HGTAPDWVYFAHLDIIW-OH [Compound 9, HHisGlyThrAlaProAspTrpValTyrPheAlaHisLeuAspIleIleTrpOH]”, the IC50 came to 0.088 nM. Turning to “H-NWHGTAPDWVYFAHLDIIW-OH [Compound 7, HAsnTrpHisGlyThrAlaProAspTrpValTyrPheAlaHisLeuAspIleIleTrpOH]”, the IC50 amounted to 0.1 nM. Same read-out and setting: with “H-VYFSHLDIIW-OH [Compound w, H-Val-Tyr-Phe-Ser-His-Leu-Asp-Ile-Ile-Trp-OH, reference compound]” the figure was over 1000 nM; with “H-WHGTAPDWVYFAHLDIIW-OH [Compound 8, HTrpHisGlyThrAlaProAspTrpValTyrPheAlaHisLeuAspIleIleTrpOH]”, 0.076 nM.

The next assay deals with ET-1 contraction of rat thoracic aorta ring. Description: Inhibitory effect on ET-1 contraction (ring specimen of extracted rat thoracic aorta). The settings on record: compound 10^-7 M, ET-1 3×10^-9 M, Sprague-Dawley rat thoracic aorta ring, tension relative to norepinephrine maximum. On the procedure: Test Example 2: Inhibitory Effect On ET-1 Contraction (ring specimen of extracted rat thoracic aorta)
Male Sprague-Dawley rats (Slc. 450-550 g) were anesthetized by intravenous injection of 50 mg/kg of sodium pentobarbital (Nembutal™, Dynabot), and the heads thereof were then incised to die by bleeding. The breasts of the rats were then incised to extract the thoracic aortas therefrom. After the connective tissue which adhered to the blood vessels were removed in a nutrient solution, the blood vessels were cut into rings (3-4 mm), and two metallic holders (one of which was fixed to a support rod) were passed through the blood vessel to prepare a specimen. One end of the holder was mounted on a tension transducer (TB-611T, produced by Nihon Koden) through silk yarn, and the specimen was suspended in a Magnus' tube containing a nutrient solution. Resting tension (1.5 g) was applied to the specimen, and the nutrient solution was replaced several times until the tension was stabilized. Norepinephrine [(±) hydrochloride, Sigma] (10-20 μM) was then added, and the tension generated by contraction of the specimen was measured to determine the maximum value of the tension. The tension generated was detected by the tension transducer, amplified by a pressure strain amplifier (AP-621G, produced by Nihon Koden) and then recorded by a pen recorder (TYPE3066, YOKOGAWA). After the specimen was washed several times to remove Norepinephrine, each of the compounds shown in Table 3 which was dissolved in distilled water was added to the nutrient solution so that the concentration thereof was 10^-7 M, or only distilled water was added thereto in the same volume. […] After the specimens were allowed to stand for 10 minutes, ET-1 was successively added to the nutrient solutions so that the concentration thereof was 3×10^-9 M, and the tension of each of the specimens was measured. The relative value to the maximum tension previously determined was calculated, and the inhibitory effect (% inhibition) on contraction due to ET-1 was determined according to the following equation. […]
For the molecule `CC[C@H](C)[C@H](NC(=O)[C@H](CC1CCCCC1)NC(=O)[C@@H](NC(=O)[C@H](CC(C)C)NC(=O)[C@H](Cc1c[nH]cn1)NC(=O)[C@H](C)NC(=O)[C@H](Cc1ccccc1)NC(=O)[C@H](Cc1ccc(O)cc1)NC(=O)[C@@H](NC(=O)[C@H](Cc1c[nH]c2ccccc12)NC(=O)[C@H](CC(=O)O)NC(=O)[C@@H]1CCCN1C(=O)[C@H](C)NC(=O)[C@@H](NC(=O)CNC(=O)[C@H](Cc1c[nH]cn1)NC(=O)[C@H](Cc1c[nH]c2ccccc12)NC(=O)[C@H](CC(N)=O)NC(=O)CN)[C@@H](C)O)C(C)C)[C@@H](C)O)C(=O)N[C@@H](Cc1c[nH]c2ccccc12)C(=O)O` [Compound 14, HGlyAsnTrpHisGlyThrAlaProAspTrpValTyrPheAlaHisLeuThrChaIleTrpOH] (H-GNWHGTAPDWVYFAHLT[Cha]IW-OH), the “% inhibition of contraction due to ET-1” value is on record as 47.0%. Still for that read-out and setting: as for `CC[C@H](C)[C@H](NC(=O)[C@H](Cc1cccs1)NC(=O)[C@@H](NC(=O)[C@H](CC(C)C)NC(=O)[C@H](Cc1c[nH]cn1)NC(=O)[C@H](C)NC(=O)[C@H](Cc1ccccc1)NC(=O)[C@H](Cc1ccc(O)cc1)NC(=O)[C@@H](NC(=O)[C@H](Cc1c[nH]c2ccccc12)NC(=O)[C@H](CC(=O)O)NC(=O)[C@@H]1CCCN1C(=O)[C@H](C)NC(=O)[C@@H](NC(=O)CNC(=O)[C@H](Cc1c[nH]cn1)NC(=O)[C@H](Cc1c[nH]c2ccccc12)NC(=O)[C@H](CC(N)=O)NC(=O)CN)[C@@H](C)O)C(C)C)[C@@H](C)O)C(=O)N[C@@H](Cc1c[nH]c2ccccc12)C(=O)O` [Compound 17, HGlyAsnTrpHisGlyThrAlaProAspTrpValTyrPheAlaHisLeuThrThiIleTrpOH] (H-GNWHGTAPDWVYFAHLT[2Thi]IW-OH), the figure is 61.3%; as for H-GNWHGTAPDWVYFAHLSMIW-OH [Compound 21], 40.4%.
